According to US9073881B2, “Benzoic acid derivatives” (HOFFMANN-LA ROCHE INC., priority 2011, dated 2015):

target: Human eIF4E (Homo sapiens (Human), UniProt P06730); experiment: Human eIF4E/4G binding assay (time-resolved fluorescence, HH-eIF4E and biotin-labeled 4G2 peptide); conditions: inhibition of binding of His-tagged human eIF4E (aa 28-217) to biotin-labeled 4G2 peptide
Description: The protein was solubilized with 8 M urea and purified under denaturing conditions using nickel-charged HisTrap HP columns (GE Healthcare). The protein was refolded by diluting to approximately 0.25 mg/mL with 6 M urea, 20 mM Hepes pH 7.0, 500 mM NaCl, 1 mM DTT, 1 mM EDTA, and 0.5 M arginine.HCl, and then dialyzing overnight into the same buffer without the urea. The protein was further dialyzed into 20 mM Hepes pH 6.5, 50 mM NaCl, 1 mM EDTA, and 1 mM DTT, filtered, and then concentrated using Hitrap SP sepharose FF columns (GE Healthcare). The protein was dialyzed into 20 mM Hepes pH 7.0, 500 mM NaCl, 5 mM DTT, and 10% glycerol and stored at −80° C. until use. Test compounds (1.6 mM stock in DMSO) were diluted 3 fold in series in DMSO. Compound solutions were diluted 4 fold in Assay Buffer (50 mM sodium phosphate, pH 6.5, 50 mM KCl, 1 mM DTT and 0.5 mg/mL gammaglobulin). […] The samples were incubated at room temperature for 20 minutes. […] IC50 values were calculated using Condoseo software (Genedata AG).

Sequence of Human eIF4E (P06730 28-217): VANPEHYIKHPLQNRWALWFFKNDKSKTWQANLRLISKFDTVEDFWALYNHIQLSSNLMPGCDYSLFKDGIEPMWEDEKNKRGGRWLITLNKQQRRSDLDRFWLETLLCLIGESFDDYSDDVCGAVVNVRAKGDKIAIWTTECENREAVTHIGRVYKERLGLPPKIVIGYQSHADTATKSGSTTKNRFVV

Structure (SMILES) | IC50 [µM]
O=C(O)c1cc(-c2nc(-c3ccccn3)cs2)ccc1-c1ccccc1[N+](=O)[O-] [Example 37, 2′-Nitro-4-(4-pyridin-2-yl-thiazol-2-yl)-biphenyl-2-carboxylic acid] | > 80
O=C(O)c1cc(-c2nc(-c3ccc(Cl)c(Cl)c3)cs2)ccc1-c1cc(Cl)cc(Cl)c1Cl [Example 149, 2′,3′,5′-Trichloro-4-[4-(3,4-dichloro-phenyl)-thiazol-2-yl]-biphenyl-2-carboxylic acid] | > 80
O=C(O)c1cc(-c2nc(-c3ccc(Cl)c(Cl)c3)cs2)ccc1-c1cccc(C(F)(F)F)c1Cl [Example 126, 2′-Chloro-4-[4-(3,4-dichloro-phenyl)-thiazol-2-yl]-3′-trifluoromethyl-biphenyl-2-carboxylic acid] | 2.8
CN1CCC(NC(=O)c2ccc(-c3ccc(-c4nc(-c5ccc(Cl)c(Cl)c5)cs4)cc3C(=O)O)cc2)CC1 [Example 51, 4-[4-(3,4-Dichloro-phenyl)-thiazol-2-yl]-4′-(1-methyl-piperidin-4-ylcarbamoyl)-biphenyl-2-carboxylic acid] | > 80
O=C(O)c1cc(-c2nc(-c3c(F)cccc3F)cs2)ccc1-c1ccccc1[N+](=O)[O-] [Example 20, 4-[4-(2,6-Difluoro-phenyl)-thiazol-2-yl]-2′-nitro-biphenyl-2-carboxylic acid] | > 80
CCN(CC)CCCNC(=O)c1ccc(-c2ccc(-c3nc(-c4ccc(Cl)c(Cl)c4)cs3)cc2C(=O)O)cc1 [Example 47, 4-[4-(3,4-Dichloro-phenyl)-thiazol-2-yl]-4′-(3-diethylamino-propylcarbamoyl)-biphenyl-2-carboxylic acid] | > 80
O=C(O)c1cc(-c2nc(-c3ccc(Cl)c(Cl)c3)cs2)ccc1-c1sccc1Cl [Example 146, 2-(3-Chloro-thiophen-2-yl)-5-[4-(3,4-dichloro-phenyl)-thiazol-2-yl]-benzoic acid] | 1.7
Cc1ccc(C=O)c(-c2ccc(-c3nc(-c4ccc(Cl)c(Cl)c4)cs3)cc2C(=O)O)c1 [Example 122, 4-[4-(3,4-Dichloro-phenyl)-thiazol-2-yl]-2′-formyl-5′-methyl-biphenyl-2-carboxylic acid] | 5.1
O=C(O)c1cc(-c2nc(-c3ccc(Cl)c(Cl)c3)cs2)ccc1-c1ccc(F)cc1 [Example 129, 4-[4-(3,4-Dichloro-phenyl)-thiazol-2-yl]-4′-fluoro-biphenyl-2-carboxylic acid] | 2.6
O=C(O)c1cc(-c2nc(-c3ccc(OC(F)F)cc3)cs2)ccc1-c1ccccc1[N+](=O)[O-] [Example 3, 4-[4-(4-Difluoromethoxy-phenyl)-thiazol-2-yl]-2′-nitro-biphenyl-2-carboxylic acid] | 9.9
CC(=O)N1CCC(NC(=O)c2ccc(-c3ccc(-c4nc(-c5ccc(Cl)c(Cl)c5)cs4)cc3C(=O)O)cc2)CC1 [Example 52, 4′-(1-Acetyl-piperidin-4-ylcarbamoyl)-4-[4-(3,4-dichloro-phenyl)-thiazol-2-yl]-biphenyl-2-carboxylic acid] | 10
O=C(O)c1cc(-c2nc(-c3cccc(Cl)c3)cs2)ccc1-c1ccccc1[N+](=O)[O-] [Example 17, 4-[4-(3-Chloro-phenyl)-thiazol-2-yl]-2′-nitro-biphenyl-2-carboxylic acid] | 3.1
O=C(O)c1cc(-c2nc(-c3cccc(F)c3)cs2)ccc1-c1ccccc1[N+](=O)[O-] [Example 24, 4-[4-(3-Fluoro-phenyl)-thiazol-2-yl]-2′-nitro-biphenyl-2-carboxylic acid] | 2.6
O=C(NCc1ccc(F)cc1)c1ccc(-c2ccc(-c3nc(-c4ccc(Cl)c(Cl)c4)cs3)cc2C(=O)O)cc1 [Example 72, 4-[4-(3,4-Dichloro-phenyl)-thiazol-2-yl]-4′-(4-fluoro-benzylcarbamoyl)-biphenyl-2-carboxylic acid] | 1.5
O=C(NC1CCOCC1)c1ccc(-c2ccc(-c3nc(-c4ccc(Cl)c(Cl)c4)cs3)cc2C(=O)O)cc1 [Example 63, 4-[4-(3,4-Dichloro-phenyl)-thiazol-2-yl]-4′-(tetrahydro-pyran-4-ylcarbamoyl)-biphenyl-2-carboxylic acid] | 5.7
Cc1cc(C(=O)O)ccc1-c1ccc(-c2nc(-c3ccc(Cl)c(Cl)c3)cs2)cc1C(=O)O [Example 79, 4-[4-(3,4-Dichloro-phenyl)-thiazol-2-yl]-2′-methyl-biphenyl-2,4′-dicarboxylic acid] | 5.4
O=C(NCCN1CCOCC1)c1ccc(-c2ccc(-c3nc(-c4ccc(Cl)c(Cl)c4)cs3)cc2C(=O)O)cc1 [Example 59, 4-[4-(3,4-Dichloro-phenyl)-thiazol-2-yl]-4′-(2-morpholin-4-yl-ethylcarbamoyl)-biphenyl-2-carboxylic acid] | > 80
O=C(NCC1CCOCC1)c1ccc(-c2ccc(-c3nc(-c4ccc(Cl)c(Cl)c4)cs3)cc2C(=O)O)cc1 [Example 60, 4-[4-(3,4-Dichloro-phenyl)-thiazol-2-yl]-4′-[(tetrahydro-pyran-4-ylmethyl)-carbamoyl]-biphenyl-2-carboxylic acid] | 8.9

More lines, now with the values ahead:

IC50 [µM] | Structure (SMILES)
1.3 | COc1ccc(-c2ccc(-c3nc(-c4ccc(Cl)c(Cl)c4)cs3)cc2C(=O)O)c(C(F)(F)F)c1 [Example 87, 4-[4-(3,4-Dichloro-phenyl)-thiazol-2-yl]-4′-methoxy-2′-trifluoromethyl-biphenyl-2-carboxylic acid]
5.9 | Cc1cc(-c2csc(-c3ccc(-c4ccccc4[N+](=O)[O-])c(C(=O)O)c3)n2)ccc1Cl [Example 9, 4-[4-(4-Chloro-3-methyl-phenyl)-thiazol-2-yl]-2′-nitro-biphenyl-2-carboxylic acid]
8.3 | O=C(O)c1cc(-c2nc(-c3cccc(C(F)(F)F)c3)cs2)ccc1-c1ccccc1[N+](=O)[O-] [Example 6, 2′-Nitro-4-[4-(3-trifluoromethyl-phenyl)-thiazol-2-yl]-biphenyl-2-carboxylic acid]
2.9 | O=C(O)c1cc(-c2nc(-c3cc(Cl)ccc3Cl)cs2)ccc1-c1ccccc1[N+](=O)[O-] [Example 12, 4-[4-(2,5-Dichloro-phenyl)-thiazol-2-yl]-2′-nitro-biphenyl-2-carboxylic acid]
> 80 | CS(=O)(=O)c1ccc(-c2csc(-c3ccc(-c4ccccc4[N+](=O)[O-])c(C(=O)O)c3)n2)cc1 [Example 33, 4-[4-(4-Methanesulfonyl-phenyl)-thiazol-2-yl]-2′-nitro-biphenyl-2-carboxylic acid]
5.9 | O=C(O)c1cc(-c2nc(-c3ccc(Cl)c(Cl)c3)cs2)ccc1-c1ccccc1 [Example 151, 4-[4-(3,4-Dichloro-phenyl)-thiazol-2-yl]-biphenyl-2-carboxylic acid]
3.2 | COc1ccc(-c2ccc(-c3nc(-c4ccc(Cl)c(Cl)c4)cs3)cc2C(=O)O)c([N+](=O)[O-])c1 [Example 28, 4-[4-(3,4-Dichloro-phenyl)-thiazol-2-yl]-4′-methoxy-2′-nitro-biphenyl-2-carboxylic acid]
1.4 | O=C(O)c1cc(-c2nc(-c3ccc(Cl)c(Cl)c3)cs2)ccc1-c1ccc(F)cc1Cl [Example 134, 2′-Chloro-4-[4-(3,4-dichloro-phenyl)-thiazol-2-yl]-4′-fluoro-biphenyl-2-carboxylic acid]
1.5 | CC(=O)c1ccc(Cl)c(-c2ccc(-c3nc(-c4ccc(Cl)c(Cl)c4)cs3)cc2C(=O)O)c1 [Example 118, 5′-Acetyl-2′-chloro-4-[4-(3,4-dichloro-phenyl)-thiazol-2-yl]-biphenyl-2-carboxylic acid]
1.7 | O=C(O)c1cc(-c2nc(-c3ccc(Cl)c(Cl)c3)cs2)ccc1-c1cc(Cl)ccc1Cl [Example 148, 2′,5′-Dichloro-4-[4-(3,4-dichloro-phenyl)-thiazol-2-yl]-biphenyl-2-carboxylic acid]
> 80 | CN(C)CCNC(=O)c1ccc(-c2ccc(-c3nc(-c4ccc(Cl)c(Cl)c4)cs3)cc2C(=O)O)cc1 [Example 49, 4-[4-(3,4-Dichloro-phenyl)-thiazol-2-yl]-4′-(2-dimethylamino-ethylcarbamoyl)-biphenyl-2-carboxylic acid]
1.3 | O=C(O)c1cc(-c2nc(-c3ccc(Cl)c(Cl)c3)cs2)ccc1-c1cc(Cl)ccc1[N+](=O)[O-] [Example 14, 5′-Chloro-4-[4-(3,4-dichloro-phenyl)-thiazol-2-yl]-2′-nitro-biphenyl-2-carboxylic acid]
9.6 | CC(=O)c1sccc1-c1ccc(-c2nc(-c3ccc(Cl)c(Cl)c3)cs2)cc1C(=O)O [Example 119, 2-(2-Acetyl-thiophen-3-yl)-5-[4-(3,4-dichloro-phenyl)-thiazol-2-yl]-benzoic acid]
7.7 | CC(=O)c1cccc(-c2ccc(-c3nc(-c4ccc(Cl)c(Cl)c4)cs3)cc2C(=O)O)c1 [Example 116, 3′-Acetyl-4-[4-(3,4-dichloro-phenyl)-thiazol-2-yl]-biphenyl-2-carboxylic acid]
2 | O=C(O)c1cc(-c2nc(-c3ccc(Cl)c(Cl)c3)cs2)ccc1-c1cc(C(F)(F)F)ccc1[N+](=O)[O-] [Example 4, 4-[4-(3,4-Dichloro-phenyl)-thiazol-2-yl]-2′-nitro-5′-trifluoromethyl-biphenyl-2-carboxylic acid]
7.8 | Cn1nccc1CNC(=O)c1ccc(-c2ccc(-c3nc(-c4ccc(Cl)c(Cl)c4)cs3)cc2C(=O)O)cc1 [Example 50, 4-[4-(3,4-Dichloro-phenyl)-thiazol-2-yl]-4′-[(2-methyl-2H-pyrazol-3-ylmethyl)-carbamoyl]-biphenyl-2-carboxylic acid]
